From PubChem BioAssay AID2060603 (Molecular Pharmacology Branch, DTP, NCI, 2025)

Test system: 422866-222-R5-J1-PDC spheroid viability
Experiment: Anticancer human tumor 422866-222-R5-J1-PDC patient-derived pancreatic adenocarcinoma cell line growth inhibition [CLK]
Conditions: spheroids with HUVEC and MSC; for IC50: curve of first compound; for viability, T/C: stronger effect = lower value
Summary of the method: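 Multi-cell-type spheroids combined patient-derived tumor cells with HUVEC endothelial cells and human mesenchymal stem cells. Paired agents were dosed in half-log steps down from about clinical Cmax, or from 10 microM where Cmax was unknown.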
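Also: spheroids exposed to agents for seven days before readout.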

Q: `C#Cc1c(F)ccc2cc(O)cc(-c3ncc4c(N5CC6CCC(C5)N6)nc(OCC56CCCN5CC(F)C6)nc4c3F)c12` (configuration not stated) + CNC(=O)c1ccc(Nc2nc(OC3CCCC3)c3c(-c4ccc5nc(C)oc5c4)c[nH]c3n2)c(OC)c1 was tested. Which IC50 (second compound 0.0316 µM) did it give?
A: 1070 nM

Q: And the IC50 (second compound 0.1 µM)?
A: 735 nM

Q: What about the IC50 (second compound 0.316 µM) of the same molecule?
A: 298 nM

Q: What about the IC50 (second compound 1 µM) of the same molecule?
A: 223 nM

Q: And the IC50 (second compound 3.16 µM)?
A: 181 nM

Q: What about the IC50 (second compound 10 µM) of the same molecule?
A: 202 nM

Q: And the viability, T/C (second compound 0.0316 µM, first compound 0.0316 µM)?
A: 102%

Q: What about the viability, T/C (second compound 0.0316 µM, first compound 0.1 µM) of the same molecule?
A: 93.5%

Q: What about the viability, T/C (second compound 0.0316 µM, first compound 0.316 µM) of the same molecule?
A: 70.8%

Q: And the viability, T/C (second compound 0.0316 µM, first compound 1 µM)?
A: 53.7%

Q: And the viability, T/C (second compound 0.0316 µM, first compound 3.16 µM)?
A: 32.1%

Q: What about the viability, T/C (second compound 0.0316 µM, first compound 10 µM) of the same molecule?
A: 26.1%

Q: What about the viability, T/C (second compound 0.1 µM, first compound 0.0316 µM) of the same molecule?
A: 81.5%

Q: And the viability, T/C (second compound 0.1 µM, first compound 0.1 µM)?
A: 67.9%

Q: And the viability, T/C (second compound 0.1 µM, first compound 0.316 µM)?
A: 61.9%

Q: What about the viability, T/C (second compound 0.1 µM, first compound 1 µM) of the same molecule?
A: 46.3%

Q: And the viability, T/C (second compound 0.1 µM, first compound 3.16 µM)?
A: 33.9%

Q: What about the viability, T/C (second compound 0.1 µM, first compound 10 µM) of the same molecule?
A: 25.6%

Q: What about the viability, T/C (second compound 0.316 µM, first compound 0.0316 µM) of the same molecule?
A: 71.7%

Q: What about the viability, T/C (second compound 0.316 µM, first compound 0.1 µM) of the same molecule?
A: 60.8%

Q: And the viability, T/C (second compound 0.316 µM, first compound 0.316 µM)?
A: 47.2%

Q: And the viability, T/C (second compound 0.316 µM, first compound 1 µM)?
A: 41.6%

Q: What about the viability, T/C (second compound 0.316 µM, first compound 3.16 µM) of the same molecule?
A: 33.8%

Q: What about the viability, T/C (second compound 0.316 µM, first compound 10 µM) of the same molecule?
A: 26.8%

Q: What about the viability, T/C (second compound 1 µM, first compound 0.0316 µM) of the same molecule?
A: 58.5%

Q: What about the viability, T/C (second compound 1 µM, first compound 0.1 µM) of the same molecule?
A: 58.7%

Q: What about the viability, T/C (second compound 1 µM, first compound 0.316 µM) of the same molecule?
A: 45.1%

Q: What about the viability, T/C (second compound 1 µM, first compound 1 µM) of the same molecule?
A: 37.3%

Q: And the viability, T/C (second compound 1 µM, first compound 3.16 µM)?
A: 28.5%

Q: What about the viability, T/C (second compound 1 µM, first compound 10 µM) of the same molecule?
A: 24.6%

Q: What about the viability, T/C (second compound 3.16 µM, first compound 0.0316 µM) of the same molecule?
A: 62.7%

Q: And the viability, T/C (second compound 3.16 µM, first compound 0.1 µM)?
A: 51.9%

Q: What about the viability, T/C (second compound 3.16 µM, first compound 0.316 µM) of the same molecule?
A: 49.6%

Q: And the viability, T/C (second compound 3.16 µM, first compound 1 µM)?
A: 32.8%

Q: And the viability, T/C (second compound 3.16 µM, first compound 3.16 µM)?
A: 39.4%

Q: And the viability, T/C (second compound 3.16 µM, first compound 10 µM)?
A: 24%

Q: And the viability, T/C (second compound 10 µM, first compound 0.0316 µM)?
A: 64.9%

Q: What about the viability, T/C (second compound 10 µM, first compound 0.1 µM) of the same molecule?
A: 50.5%

Q: And the viability, T/C (second compound 10 µM, first compound 0.316 µM)?
A: 46.4%

Q: What about the viability, T/C (second compound 10 µM, first compound 1 µM) of the same molecule?
A: 42.5%

Q: And the viability, T/C (second compound 10 µM, first compound 3.16 µM)?
A: 30.5%

Q: And the viability, T/C (second compound 10 µM, first compound 10 µM)?
A: 21.9%
